Results as given in US20230373934A1, “ANDROGEN RECEPTOR MODULATORS AND METHODS FOR THEIR USE” (ESSA Pharma, Inc., priority 2022, published 2023).

How the values were obtained:
[1] = Microsomal stability assay, liver microsome half-life (rat); assay type: in vitro ADME; details: pH 7.4; rat liver microsomes 0.5 mg/mL + NADPH, 1 μM compound, 37° C; read-out: Liver microsome + NADPH T½ (min) Rat
From the text: (§1) Microsomal Stability Assay: Microsomal stability assay is a widely used in vitro model to characterize the metabolic conversion by phase I enzymes, such as cytochrome P450 (CYP) enzymes. Since metabolism is known to be highly variable in different species, microsomal stability assay is commonly run in multiple species. Metabolic stability of testing compound can be evaluated using human, rat, mouse, or other animal liver or intestine microsomes to predict intrinsic clearance.
(§2) The assay was carried out in 96-well microtiter plates at 37° C. Reaction mixtures (25 μL) contained a final concentration of 1 μM test compound, 0.5 mg/mL liver microsomes protein, and 1 mM NADPH and/or 1 mM UDPGA (with alamethicin) in 100 mM potassium phosphate, pH 7.4 buffer with 3 mM MgCl2. The incubation was done with N=1, but duplicate incubation at each time point can be prepared if necessary. At each of the time points (for example, 0, 15, 30, and 60 minutes), 150 μL of quench solution (100% acetonitrile with 0.1% formic acid) with internal standard was transferred to each well. Besides the zero minute controls, mixtures containing the same components except the NADPH can also be prepared as the negative control. Verapamil was included as a positive control to verify assay performance. Plates were sealed, vortexed, and centrifuged at 4° C. for 15 minutes at 4000 rpm. The supernatant is transferred to fresh plates for LC/MS/MS analysis.
(§3) Summarized conditions: [Compound]=1 μM, [LM]=0.5 mg/mL, [NADPH]=1 mM and/or [UDPGA]=1 mM, Buffer=100 mM Potassium Phosphate, pH 7.4 with 3 mM MgCl2, Time=0, 15, 30, and 60 min, and Temperature=37° C.
(§4) All samples were analyzed on LC/MS/MS using an AB Sciex API 4000 instrument, coupled to a Shimadzu LC-20AD LC Pump system. Analytical samples were separated using a Waters Atlantis T3 dC18 reverse phase HPLC column (20 mm×2.1 mm) at a flow rate of 0.5 mL/min. The mobile phase consisted of 0.1% formic acid in water (solvent A) and 0.1% formic acid in 100% acetonitrile (solvent B).
(§5) The extent of metabolism is calculated as the disappearance of the test compound, compared to the 0-min time incubation. Initial rates are calculated for the compound concentration and used to determine half-life (t1/2).

[2] = Microsomal stability assay, liver microsome half-life (monkey); assay type: in vitro ADME; details: pH 7.4; monkey liver microsomes 0.5 mg/mL + NADPH, 1 μM compound, 37° C; read-out: Liver microsome + NADPH T½ (min) Monkey
From the text: as §1, §2, §3, §4, §5

androgen receptor (AR) = target: T1, androgen receptor (AR) (Homo sapiens, UniProt P10275); experiment: Androgen-induced PSA-luciferase assay, Luciferase Assay B (cells stably expressing ARR2PB or PSA-firefly luciferase reporter, 384-well); assay type: cell-based; details: Luciferase Assay B (Compounds A186-A219 and A221-A245); stable luciferase reporter cells, 1 h pretreatment, R1881 24 h, serum-free; read-out: PSA-Luc IC50 Range
T1 sequence (P10275 1-920 T878A): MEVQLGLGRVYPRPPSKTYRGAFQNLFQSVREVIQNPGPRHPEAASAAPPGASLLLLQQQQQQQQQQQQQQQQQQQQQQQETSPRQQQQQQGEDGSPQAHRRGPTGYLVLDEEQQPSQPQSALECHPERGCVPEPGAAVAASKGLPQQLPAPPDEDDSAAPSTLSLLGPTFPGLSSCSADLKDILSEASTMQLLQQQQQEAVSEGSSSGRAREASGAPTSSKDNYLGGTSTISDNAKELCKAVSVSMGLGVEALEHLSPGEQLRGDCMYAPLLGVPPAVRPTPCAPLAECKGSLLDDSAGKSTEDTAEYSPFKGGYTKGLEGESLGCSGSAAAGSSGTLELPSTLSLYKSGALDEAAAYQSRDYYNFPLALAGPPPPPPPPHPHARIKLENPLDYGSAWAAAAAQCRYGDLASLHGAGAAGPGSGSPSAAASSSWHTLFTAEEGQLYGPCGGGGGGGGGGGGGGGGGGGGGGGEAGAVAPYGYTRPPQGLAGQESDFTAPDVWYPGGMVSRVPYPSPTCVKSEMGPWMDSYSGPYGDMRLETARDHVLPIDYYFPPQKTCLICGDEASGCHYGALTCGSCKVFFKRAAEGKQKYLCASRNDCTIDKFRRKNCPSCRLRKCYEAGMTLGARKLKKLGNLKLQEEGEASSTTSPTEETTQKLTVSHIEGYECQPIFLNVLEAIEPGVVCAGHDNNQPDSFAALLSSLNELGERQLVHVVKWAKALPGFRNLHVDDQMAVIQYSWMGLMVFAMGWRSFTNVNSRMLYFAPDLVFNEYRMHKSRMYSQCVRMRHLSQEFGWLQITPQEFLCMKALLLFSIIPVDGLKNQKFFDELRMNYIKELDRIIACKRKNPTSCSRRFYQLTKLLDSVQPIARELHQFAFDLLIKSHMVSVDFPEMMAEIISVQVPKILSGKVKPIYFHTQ

[3] = Microsomal stability assay, liver microsome half-life (mouse); assay type: in vitro ADME; details: pH 7.4; mouse liver microsomes 0.5 mg/mL + NADPH, 1 μM compound, 37° C; read-out: Liver microsome + NADPH T½ (min) Mouse
From the text: as §1, §2, §3, §4, §5

[4] = Microsomal stability assay, liver microsome half-life (human); assay type: in vitro ADME; details: pH 7.4; human liver microsomes 0.5 mg/mL + NADPH, 1 μM compound, 37° C; read-out: Liver microsome + NADPH T½ (min) Human
[5] = Microsomal stability assay, liver microsome half-life (dog); assay type: in vitro ADME; details: pH 7.4; dog liver microsomes 0.5 mg/mL + NADPH, 1 μM compound, 37° C; read-out: Liver microsome + NADPH T½ (min) Dog
From the text: as §1, §2, §3, §4, §5

half-life at 1 μM [1] | half-life at 1 μM [2] | IC50 (androgen receptor (AR)) | half-life at 1 μM [3] | half-life at 1 μM [4] | half-life at 1 μM [5] | Compound
> 120 min | > 120 min | 500 to 2000 nM | > 120 min | > 120 min | > 120 min | N#Cc1cc(Oc2ccc(-c3ccc4nc(N5CC(O)C5)cnc4c3)cc2)cc(Cl)c1OC1CC1 [Compound A205]
> 120 min | > 120 min | < 500 nM | > 120 min | > 120 min | > 120 min | CN(c1ccc(-c2ccc3nc(NS(C)(=O)=O)cnc3c2)cc1)c1cc(F)c(OC2CC2)c(C#N)c1 [Compound A208]
> 120 min | > 120 min | 500 to 2000 nM | > 120 min | > 120 min | > 120 min | [2H]C([2H])([2H])N(c1ccc(-c2ccc3nc(NS(C)(=O)=O)cnc3c2)cc1)c1cc(Cl)c(OC2CC2)c(C#N)c1 [Compound A187]

The next lines start with the molecule.

Compound | half-life at 1 μM [1] | half-life at 1 μM [2] | IC50 (androgen receptor (AR)) | half-life at 1 μM [3] | half-life at 1 μM [4] | half-life at 1 μM [5]
CS(=O)(=O)Nc1nc2ccc(-c3ccc(Oc4cc(Cl)c(OC5CC5)c(C#N)c4)cc3)cc2cc1F [Compound A191] | > 120 min | > 120 min | 500 to 2000 nM | > 120 min | > 120 min | > 120 min
CS(=O)(=O)Nc1cnc2cc(-c3ccc(N(CC(F)(F)F)c4cnc(OC5CC5)c(C#N)c4)cc3)ccc2n1 [Compound A203, N-(6-(4-((5-cyano-6-cyclopropoxypyridin-3-yl)(2,2,2-trifluoroethyl)amino)phenyl)quinoxalin-2-yl)methanesulfonamide] | > 120 min | > 120 min | < 500 nM | > 120 min | > 120 min | > 120 min
CS(=O)(=O)Nc1cnc2cc(-c3ccc(Oc4cc(C#N)c(OC5CC5)c(C(F)(F)F)c4)cc3)ccc2n1 [Compound A190] | > 120 min | > 120 min | 500 to 2000 nM | > 120 min | > 120 min | > 120 min
CS(=O)(=O)Nc1cnc2cc(-c3ccc(Oc4cc(C#N)c(OC5CC5)c(C#N)c4)cc3)ccc2n1 [Compound A198] | > 120 min | > 120 min | < 500 nM | > 120 min | > 120 min | > 120 min
CS(=O)(=O)Nc1cnc2cc(-c3ccc(N(CC(F)(F)F)c4cc(Cl)c(OC5CC5)c(C#N)c4)cc3)ccc2n1 [Compound A186, N-(6-(4-((3-chloro-5-cyano-4-cyclopropoxyphenyl) (2,2,2-trifluoroethyl)amino)phenyl)quinoxalin-2-yl)methanesulfonamide] | > 120 min | > 120 min | < 500 nM | > 120 min | > 120 min | > 120 min
